The text below walks through data of US20220267374A1, “IMMUNITY INDUCER AND PHARMACEUTICAL COMPOSITION FOR PREVENTING OR TREATING AGING-RELATED DISEASES” (priority 2019, published 2022).

One assay concerns GPNMB-positive cells. Put plainly: Analysis of Gpnmb-dependent luciferase activity (in vivo IVIS imaging). On the set-up: species or system Gpnmb-DTR mouse. The conditions noted are these: HFD-fed Gpnmb-DTR mouse, 16 weeks of age, s.c. vaccination at 8 weeks of age; vs control vaccine; FIG. 2B. As to the method:
Gpnmb-DTR mouse bred by feeding normal diet or HFD for 4 weeks, and Gpnmb-DTR mouse bred by feeding HFD for 4 weeks, and then injecting DT (50 μg/kg body weight) at 2-week intervals (12 weeks of age and 14 weeks of age) intraperitoneally twice while continuing to feed HFD (16 weeks of age) were subjected to in vivo luciferase imaging analysis using the IVIS imaging system (Perkin Elmer). Mice were shaved ventrally, anesthetized with isoflurane (Wako Pure Chemicals Industries), and injected intraperitoneally with luciferin (150 mg/kg body weight) according to the manufacturer's instructions (Vivo-Glo; Promega). Luciferase activity was monitored 5 minutes after luciferin administration. Signals were analyzed using Living Image software (Perkin Elmer) to quantify luciferase activity. In FIG. 1B, “Before” is a Gpnmb-DTR mouse before HFD was fed (6 weeks of age), “HFD” is a Gpnmb-DTR mouse that was fed with HFD from 6 weeks of age and bred for 6 weeks (12 weeks of age), and “After DT” is a Gpnmb-DTR mouse that was bred by feeding HFD for 4 weeks and then injecting DT (50 μg/kg body weight) at 2-week intervals (12 weeks of age and 14 weeks of age) intraperitoneally twice while continuing to feed HFD (16 weeks of age). […]

The subject of assay [1] is aging-related acidic β-galactosidase (SA-β-gal). Put plainly: SA-β-gal staining of adipose tissue. In kind it is in vivo, C57BL/6 mice. The conditions noted are these: HFD-fed mice, 16 weeks of age, s.c. vaccination at 8 weeks of age, vs control vaccine, FIGS. 2G, 2H. As to the method:
Aging-related acidic β-galactosidase (SA-β-gal) activity in adipose tissue was tested. Briefly, adipose tissue newly isolated from each Gpnmb-DTR mouse was incubated at 37° C. for 2 hours in a β-gal staining solution (containing 1 mg/ml of 5-bromo-4-chloro-3-indaryl β-D-galactopyranoside (X-gal), 5 mmol/L potassium ferrocyanide, 150 mmol/L of sodium chloride, 2 mmol/L of magnesium chloride, 0.01% of sodium deoxycholate, and 0.02% of nonidet-40). Then, the stained adipose tissue was captured (refer to FIG. 1C). SA-β-gal stainability was quantified by Image-J software (refer to FIG. 1D). […]
SA-β-gal staining was performed using the same method as in “3.” of Reference Example 1, except that adipose tissue collected from C57BL/6 mice (16 weeks of age) bred by feeding HFD from 4 weeks of age and administered with peptide vaccine 1 or a control vaccine by subcutaneous injection at a time point of 8 weeks of age was used. The SA-β-gal stainability was quantified by Image-J software (refer to FIG. 2H). […]

Another assay in a line: Open field test. Format: in vivo, C57BL/6 mice. The conditions noted are these: normal diet, s.c. vaccination at 50 weeks of age; vs control vaccine; FIG. 2L. As to the method: C57BL/6 mice bred by feeding a normal diet and administered with peptide vaccine 1 or a control vaccine by subcutaneous injection at a time point of 50 weeks of age were used. Open field tests were performed before and after vaccination (50 and 70 weeks of age). The open field test is a test that measures voluntary activity in a novel environment. Each mouse was placed in an open field and tested for 6 minutes. The total action time (seconds) and average speed (cm/sec) of each mouse during the test were measured. The difference between the measurement results at 50 weeks of age and the measurement results at 70 weeks of age is shown in FIG. 2L. In FIG. 2L, “Cont vac” is a C57BL/6 mouse administered with the control vaccine, and “Gpnmb vac” is a C57BL/6 mouse administered with the peptide vaccine 1.

Ends that are not written are not given here.

As to “RRGDGRWKD (also: KLH conjugate; listed as Mus musculus) [peptide vaccine 1, peptide of positions 63 to 71 of mouse GPNMB protein]”, the Gpnmb-dependent luciferase activity result with GPNMB-positive cells was “decreased”. The SA-β-gal activity entry in assay [1] is “decrease”. The “results in the open field test (total action time, average speed; difference 50 vs 70 weeks of age)” value in “Open field test” was “significantly improved”.
